The values that follow come from patent publication US10293020B2, “Peptide therapeutics and methods for using same” (Stealth BioTherapeutics Corp, priority 2013, dated 2019).

Data set [1] in a line: Variable temperature static 31P NMR of membrane integrity. The following applies: P:L=1:12.5, 280 K-360 K. Type of data set: physicochemical. An excerpt: (§1) Large unilamellar vesicles (LUVs) with a transmembrane gradient of about −180 mV are constructed, composed of a mixture of cardiolipin (CL, 10% mol), phosphatidylcholine (PC, 50% mol), and phosphatidylethanolamine (PE, 40% mol). An electrochemical gradient is incorporated because the transloation of MPPs is known to be highly dependent on electrochemical potential. Spectra from three different peptide-lipid systems are compared: Mn^2+ free, Mn^2+ bound to one side of the vesicle, and Mn^2+ bound to both the inside and outside of the vesicle.
(§2) The spinning rate for all MAS experiments is 5 kHz, performed at 310 K. ^13C direct polarization (DP) MAS NMR spectra is decoupled with two pulse phase modulation (TPPM) at ^1H field strengths of 30 kHz. Typical radiofrequency (rf) pulse lengths are ˜5 μs for ^13C and ˜2 μs for ^1H. Static ^31P spectra are decoupled with WALTZ-16 at ^1H field strengths of 6 kHz. Typical rf pulse lengths are ˜4 μs for ^31P.
Static ^31P chemical shift anisotropy NMR measurements are conducted at variable temperatures (280 K-360 K) to determine if any changes in membrane morphology or lipid transition temperatures occurr upon peptide binding. The ^31P NMR spectra of the model mitochondria membranes alone are recorded to provide a comparison to the peptide-bound membranes. […]

A short description of data set [2]: 13C MAS PRE solid-state NMR of peptide in Mn2+-bound vesicles. Type of data set: physicochemical.
Source text: as §1
A pH difference is used to establish a transmembrane gradient. The membrane encapsulates 300 mM pH 4 phosphate buffer inside the vesicle and 10 mM pH 7 phosphate buffer outside to establish an electrochemical potential of −177 mV, which is reflective of the biologically encountered mitochondrial gradient of −180 mV. The existence of a three unit pH gradient is confirmed by the fluorescence response of 9-aminoacridine as previously described.
Hydrated CL/PC/PE membranes are formed by dissolving the lipids in a 95:5 benzene:ethanol mixture at an appropriate molar ratio of 0.1/0.5/0.4, respectively. The lipid mixture is lyophilized overnight. The dried lipid cake is rehydrated with 300 mM phosphate buffer at pH 4 which is heated to 85° C. The rehydrated lipid sample is incubated for 2 hours at 85° C. and vortexed periodically to produce multilamellar vesicles (MLVs). The resulting MLVs are down-sized using a mini extruder (Avanti Polar Lipids, Inc.) and passed through a 100 nm polycarbonate membrane 21 times to produce LUVs of uniform diameter of 100 nm. The size of the vesicles is confirmed by dynamic light scattering on a ZetaPALS particle size analyzer. The LUVs are dialyzed for at least 8 hours using a Slide-A-Lyzer (Thermo Fisher Scientific) to remove the low pH, high salt buffer and replace it with 10 mM phosphate buffer at pH 7 for the exterior membrane environment.
After dialysis, the MPP is added at the appropriate molar ratio (P:L=1:10 or P:L=1:40) to the LUVs and incubated overnight. The MPP-lipid mixture is centrifuged at 160 000 g for 1.5 hours to yield a hydrated pellet, which is packed into a 200 μL MAS rotor. For the Mn^2+ containing samples, the Mn^2+ solution is prepared from MnCl2.4H2O and added at 8 mol % of the lipids. To obtain one side Mn^2+ bound vesicles, the Mn^2+ solution is either added after ultracentrifugation or during extrusion, producing outside-bound and inside-bound one side Mn^2+ bound samples. For two side Mn^2+ bound vesicles, the vesicles are extruded with the appropriate percentage of Mn^2+ and had Mn^2+ added after dialysis to replace the ions lost during this process.
as §2
To assess the remaining two mechanisms of translocation (electroporation and guanidinium-phosphate complexation), a ^13C MAS NMR PRE method at 310 K is used. In order to assure asymmetric distribution of Mn^2+ paramagnetic ions with the new model inner mitochondrial membranes, the ion position is monitoted with the ^31P NMR signal of the lipid heagroups. Without paramagnetic ions present, the entire signal is measured from all the phospholipid headgroups. The addition of Mn^2+ to the outside of the vesicles is expected to cause signal attenuation of about half the lipids, corresponding to dephasing of the outer leaflet. When the paramagnetic ions are on both sides of the bilayer, the entire ^31P signal is expected to be killed because all lipid headgroups will be in close proximity to Mn^2+. […]

Non-standard residues stand in square brackets, D forms with d. No end group written: not given here. Cha = N[C@@H](CC1CCCCC1)C(=O)O

Regarding [Cha]R[Cha]K-NH2 [MPP], the “effect on bilayer integrity” value in data set [1] is reported as “does not alter the bilayer integrity”. Further, the “insertion depth in the bilayer” value in data set [2] (P:L=1:10) is listed as “inserted into both leaflets at C2”; in data set [2] (P:L=1:40), “inserted at approximately C1-C2”. Further, the “leaflet distribution of the peptide” value was “distributed in both the inner and outer leaflet” in data set [2] (high peptide concentration, P:L=1:10); “binds only to the outer leaflet” in data set [2] (low peptide concentration, P:L=1:40). The “peptide 13C peak signal intensity retained vs unbound sample” value in data set [2] (one side Mn2+ bound, P:L=1:10) is recorded as approximately 75%. Moreover, the “peptide 13C peak signal retention” value in data set [2] (two side Mn2+ bound, P:L=1:10) is on record as “about 50%”.
